Experimental data: ChEMBL document CHEMBL1949628, “Discovery of aminopiperidine-based Smac mimetics as IAP antagonists” (Bioorg Med Chem Lett, 2012)

test system: MDA-MB-231; assay: Antiproliferative activity against human MDA-MB-231 cells assessed as cell growth at 0.13951 uM after 48 hrs by alamar blue assay relative to control; assay type: functional; conditions: MDA-MB-231, 48 h, read-out: Activity

SMILES | growth at 0.13951 µM
CN[C@@H](C)C(=O)N[C@H](C(=O)N[C@H]1C[C@@H]2CC[C@H]1N(CCc1ccccc1)C2)C1CCCCC1 | 37.5%

test system: MDA-MB-231; assay: Antiproliferative activity against human MDA-MB-231 cells assessed as cell growth at 1.25556 uM after 48 hrs by alamar blue assay relative to control; assay type: functional; conditions: MDA-MB-231, 48 h, read-out: Activity

SMILES | growth at 1.25556 µM
CN[C@@H](C)C(=O)N[C@H](C(=O)N[C@H]1C[C@@H]2CC[C@H]1N(CCc1ccccc1)C2)C1CCCCC1 | -12.2%

test system: MDA-MB-231; assay: Antiproliferative activity against human MDA-MB-231 cells assessed as cell growth at 0.41852 uM after 48 hrs by alamar blue assay relative to control; assay type: functional; conditions: MDA-MB-231, 48 h, read-out: Activity

SMILES | growth at 0.41852 µM
CN[C@@H](C)C(=O)N[C@H](C(=O)N[C@H]1C[C@@H]2CC[C@H]1N(CCc1ccccc1)C2)C1CCCCC1 | 3.61%

test system: MDA-MB-231; assay: Antiproliferative activity against human MDA-MB-231 cells assessed as cell growth at 3.76667 uM after 48 hrs by alamar blue assay relative to control; assay type: functional; conditions: MDA-MB-231, 48 h, read-out: Activity

SMILES | growth at 3.76667 µM
CN[C@@H](C)C(=O)N[C@H](C(=O)N[C@H]1C[C@@H]2CC[C@H]1N(CCc1ccccc1)C2)C1CCCCC1 | -11%

test system: MDA-MB-231; assay: Antiproliferative activity against human MDA-MB-231 cells assessed as cell growth at 11.3 uM after 48 hrs by alamar blue assay relative to control; assay type: functional; conditions: MDA-MB-231, 48 h, read-out: Activity

SMILES | growth at 11.3 µM
CN[C@@H](C)C(=O)N[C@H](C(=O)N[C@H]1C[C@@H]2CC[C@H]1N(CCc1ccccc1)C2)C1CCCCC1 | 8.61%

test system: MDA-MB-231; assay: Antiproliferative activity against human MDA-MB-231 cells after 48 hrs by alamar blue assay; assay type: functional; conditions: MDA-MB-231, 48 h

GI50 | SMILES
1010 nM | CN[C@@H](C)C(=O)N[C@H](C(=O)N[C@H]1CCCN(CCc2ccccc2)C1)C1CCCCC1
100 nM | CN[C@@H](C)C(=O)N[C@H](C(=O)N[C@H]1C[C@@H]2CC[C@H]1N(CCc1ccccc1)C2)C1CCCCC1

test system: not listed separately; assay: Lipophilicity, log D of the compound; assay type: physicochemical; conditions: octanol/water

logD | SMILES
2.61 | CN[C@@H](C)C(=O)N[C@H](C(=O)N1CC[C@H]2CCN(CCc3ccccc3)C[C@H]21)C1CCCCC1
1.64 | CN[C@@H](C)C(=O)N[C@H](C(=O)N[C@H]1C[C@@H]2CC[C@H]1N(CCc1ccccc1)C2)C1CCCCC1

target: T1, E3 ubiquitin-protein ligase XIAP (Homo sapiens, UniProt P98170); assay: Binding affinity to GST-tagged BIR3 domain of XIAP by isothermal titration calorimetry; conditions: not given

Kd | SMILES
900 nM | CN[C@@H](C)C(=O)N[C@H](C(=O)N[C@H]1C[C@@H]2CC[C@H]1N(CCc1ccccc1)C2)C1CCCCC1

target: T1, E3 ubiquitin-protein ligase XIAP; assay: Antagonist activity at GST-tagged BIR3 domain of XIAP using AbuRPFK-5FAM after 20 mins by fluorescence polarization assay; assay type: functional; conditions: not given

IC50 | SMILES
> 8000 nM | CN[C@@H](C)C(=O)N[C@H](C(=O)N[C@H]1CCCN(CCc2ccccc2)C1)C1CCCCC1
365 nM | CN[C@@H](C)C(=O)N[C@H](C(=O)N[C@H]1C[C@@H]2CC[C@H]1N(CCc1ccccc1)C2)C1CCCCC1

target: T2, Baculoviral IAP repeat-containing protein 2 (Homo sapiens, UniProt Q13490); assay: Antagonist activity at GST-tagged BIR3 domain of cIAP1 using AbuRPFK-5FAM after 20 mins by fluorescence polarization assay; assay type: functional; conditions: not given

SMILES | IC50
CN[C@@H](C)C(=O)N[C@H](C(=O)N[C@H]1CCCN(CCc2ccccc2)C1)C1CCCCC1 | 40 nM
CN[C@@H](C)C(=O)N[C@H](C(=O)N[C@H]1CCN(Cc2ccccc2)C1)C1CCCCC1 | 3380 nM
CN[C@@H](C)C(=O)N[C@H](C(=O)N[C@H]1CCN(CCc2ccccc2)C1)C1CCCCC1 | 500 nM
CN[C@@H](C)C(=O)N[C@H](C(=O)N[C@H]1CCN(CCCc2ccccc2)C1)C1CCCCC1 | 740 nM
CN[C@@H](C)C(=O)N[C@H](C(=O)N[C@H]1CCN(C(=O)c2ccccc2)C1)C1CCCCC1 | 5020 nM
CN[C@@H](C)C(=O)N[C@H](C(=O)N[C@H]1CCN(C(=O)Cc2ccccc2)C1)C1CCCCC1 | 780 nM
CN[C@@H](C)C(=O)N[C@H](C(=O)N[C@H]1CCN(C(=O)OCc2ccccc2)C1)C1CCCCC1 | 740 nM
CN[C@@H](C)C(=O)N[C@H](C(=O)N[C@H]1CCCN(Cc2ccccc2)C1)C1CCCCC1 | 1690 nM
CN[C@@H](C)C(=O)N[C@H](C(=O)N[C@H]1CCCN(CCCc2ccccc2)C1)C1CCCCC1 | 790 nM
CN[C@@H](C)C(=O)N[C@H](C(=O)N[C@H]1CCCN(C(=O)c2ccccc2)C1)C1CCCCC1 | 3360 nM
CN[C@@H](C)C(=O)N[C@H](C(=O)N[C@H]1CCCN(C(=O)Cc2ccccc2)C1)C1CCCCC1 | 130 nM
CN[C@@H](C)C(=O)N[C@H](C(=O)N[C@H]1CCCN(C(=O)OCc2ccccc2)C1)C1CCCCC1 | 450 nM
CN[C@@H](C)C(=O)N[C@H](C(=O)N[C@H]1CCCCN(Cc2ccccc2)C1)C1CCCCC1 | 270 nM
CN[C@@H](C)C(=O)N[C@H](C(=O)N[C@H]1CCCCN(CCc2ccccc2)C1)C1CCCCC1 | 80 nM
CN[C@@H](C)C(=O)N[C@H](C(=O)N(C)[C@H]1CCCN(CCc2ccccc2)C1)C1CCCCC1 | 44 nM
CN[C@@H](C)C(=O)N[C@H](C(=O)N[C@H]1CCCN(CC(c2ccccc2)c2ccccc2)C1)C1CCCCC1 | 62 nM
CN[C@@H](C)C(=O)N[C@H](C(=O)N[C@H]1CCCN([C@@H]2CCCc3ccccc32)C1)C1CCCCC1 | 1990 nM
CN[C@@H](C)C(=O)N[C@H](C(=O)N[C@H]1CCCN(S(=O)(=O)c2ccccc2)C1)C(C)(C)C | 5750 nM
CN[C@@H](C)C(=O)N[C@H](C(=O)N[C@H]1CCCN(S(=O)(=O)Cc2ccccc2)C1)C(C)(C)C | 3890 nM
CN[C@@H](C)C(=O)N[C@H](C(=O)N[C@H]1CCCN(CCc2ccccc2F)C1)C1CCCCC1 | 33 nM
CN[C@@H](C)C(=O)N[C@H](C(=O)N[C@H]1CCCN(CCc2cccc(F)c2)C1)C1CCCCC1 | 68 nM
CN[C@@H](C)C(=O)N[C@H](C(=O)N[C@H]1CCCN(CCc2ccc(F)cc2)C1)C1CCCCC1 | 18 nM
CN[C@@H](C)C(=O)N[C@H](C(=O)N[C@H]1CCCN(CCc2c[nH]c3ccccc23)C1)C(C)(C)C | 115 nM
CN[C@@H](C)C(=O)N[C@H](C(=O)N[C@H]1C[C@@H]2CC[C@H]1N(CCc1ccccc1)C2)C1CCCCC1 | 4 nM

Further lines, results first:

IC50 | SMILES
26 nM | CN[C@@H](C)C(=O)N[C@H](C(=O)N[C@H]1CCCN(CCc2ccccc2)C1)C(C)(C)C
20 nM | CN[C@@H](C)C(=O)N[C@H](C(=O)N[C@H]1CCCN(CCc2ccc(F)cc2)C1)C(C)(C)C
50 nM | CN[C@@H](C)C(=O)N[C@H](C(=O)N[C@H]1CCCN(CCc2ccccc2OC)C1)C(C)(C)C
52 nM | CN[C@@H](C)C(=O)N[C@H](C(=O)N[C@H]1CCCN(CCc2cccc(OC)c2)C1)C(C)(C)C
90 nM | CN[C@@H](C)C(=O)N[C@H](C(=O)N[C@H]1CCCN(CCc2ccc(OC)cc2)C1)C(C)(C)C
24 nM | CN[C@@H](C)C(=O)N[C@H](C(=O)N[C@H]1CCCN(CCc2ccc(Cl)cc2)C1)C(C)(C)C
24 nM | CN[C@@H](C)C(=O)N[C@H](C(=O)N[C@H]1CCCN(CCc2ccc(Br)cc2)C1)C(C)(C)C
30 nM | CN[C@@H](C)C(=O)N[C@H](C(=O)N[C@H]1CCCN(CCc2ccc(C)cc2)C1)C(C)(C)C
42 nM | CN[C@@H](C)C(=O)N[C@H](C(=O)N[C@H]1CCCN(CCc2ccc(O)cc2)C1)C(C)(C)C
32 nM | CN[C@@H](C)C(=O)N[C@H](C(=O)N[C@H]1CCCN(CCc2ccc([N+](=O)[O-])cc2)C1)C(C)(C)C
49 nM | CN[C@@H](C)C(=O)N[C@H](C(=O)N[C@H]1CCCN(CCc2ccc(C(F)(F)F)cc2)C1)C(C)(C)C
301 nM | CN[C@@H](C)C(=O)N[C@H](C(=O)N[C@H]1CCCN(CCc2ccccn2)C1)C(C)(C)C
593 nM | CN[C@@H](C)C(=O)N[C@H](C(=O)N[C@H]1CCCN(CCc2ccncc2)C1)C(C)(C)C

target: T2, Baculoviral IAP repeat-containing protein 2; assay: Antagonist activity at cIAP1 in human MDA-MB-231 cells assessed as cIAP1 degradation after 1 hr by ELISA; assay type: functional, cell-based; conditions: not given

SMILES | EC50
CN[C@@H](C)C(=O)N[C@H](C(=O)N[C@H]1CCCN(CCc2ccccc2)C1)C1CCCCC1 | 113 nM
CN[C@@H](C)C(=O)N[C@H](C(=O)N[C@H]1CCCN(CCc2ccccc2F)C1)C1CCCCC1 | 104 nM
CN[C@@H](C)C(=O)N[C@H](C(=O)N[C@H]1CCCN(CCc2cccc(F)c2)C1)C1CCCCC1 | 279 nM
CN[C@@H](C)C(=O)N[C@H](C(=O)N[C@H]1CCCN(CCc2ccc(F)cc2)C1)C1CCCCC1 | 58 nM
CN[C@@H](C)C(=O)N[C@H](C(=O)N[C@H]1CCCN(CCc2c[nH]c3ccccc23)C1)C(C)(C)C | 185 nM
CN[C@@H](C)C(=O)N[C@H](C(=O)N[C@H]1C[C@@H]2CC[C@H]1N(CCc1ccccc1)C2)C1CCCCC1 | 5 nM

More lines, now with the values ahead:

EC50 | SMILES
60 nM | CN[C@@H](C)C(=O)N[C@H](C(=O)N[C@H]1CCCN(CCc2ccc(F)cc2)C1)C(C)(C)C
156 nM | CN[C@@H](C)C(=O)N[C@H](C(=O)N[C@H]1CCCN(CCc2ccccc2OC)C1)C(C)(C)C
164 nM | CN[C@@H](C)C(=O)N[C@H](C(=O)N[C@H]1CCCN(CCc2cccc(OC)c2)C1)C(C)(C)C
158 nM | CN[C@@H](C)C(=O)N[C@H](C(=O)N[C@H]1CCCN(CCc2ccc(OC)cc2)C1)C(C)(C)C
117 nM | CN[C@@H](C)C(=O)N[C@H](C(=O)N[C@H]1CCCN(CCc2ccc(Cl)cc2)C1)C(C)(C)C
71 nM | CN[C@@H](C)C(=O)N[C@H](C(=O)N[C@H]1CCCN(CCc2ccc(Br)cc2)C1)C(C)(C)C
60 nM | CN[C@@H](C)C(=O)N[C@H](C(=O)N[C@H]1CCCN(CCc2ccc(C)cc2)C1)C(C)(C)C
68 nM | CN[C@@H](C)C(=O)N[C@H](C(=O)N[C@H]1CCCN(CCc2ccc(O)cc2)C1)C(C)(C)C
60 nM | CN[C@@H](C)C(=O)N[C@H](C(=O)N[C@H]1CCCN(CCc2ccc([N+](=O)[O-])cc2)C1)C(C)(C)C
300 nM | CN[C@@H](C)C(=O)N[C@H](C(=O)N[C@H]1CCCN(CCc2ccc(C(F)(F)F)cc2)C1)C(C)(C)C
> 370 nM | CN[C@@H](C)C(=O)N[C@H](C(=O)N[C@H]1CCCN(CCc2ccccn2)C1)C(C)(C)C
> 370 nM | CN[C@@H](C)C(=O)N[C@H](C(=O)N[C@H]1CCCN(CCc2ccncc2)C1)C(C)(C)C

test system: MDA-MB-231; assay: Antiproliferative activity against human MDA-MB-231 cells assessed as cell growth at 0.0465 uM after 48 hrs by alamar blue assay relative to control; assay type: functional; conditions: MDA-MB-231, 48 h, read-out: Activity

SMILES | growth at 0.0465 µM
CN[C@@H](C)C(=O)N[C@H](C(=O)N[C@H]1C[C@@H]2CC[C@H]1N(CCc1ccccc1)C2)C1CCCCC1 | 73.5%

test system: MDA-MB-231; assay: Antiproliferative activity against human MDA-MB-231 cells assessed as cell growth at 0.0155 uM after 48 hrs by alamar blue assay relative to control; assay type: functional; conditions: MDA-MB-231, 48 h, read-out: Activity

SMILES | growth at 0.0155 µM
CN[C@@H](C)C(=O)N[C@H](C(=O)N[C@H]1C[C@@H]2CC[C@H]1N(CCc1ccccc1)C2)C1CCCCC1 | 84%

test system: MDA-MB-231; assay: Antiproliferative activity against human MDA-MB-231 cells assessed as cell growth at 0.00517 uM after 48 hrs by alamar blue assay relative to control; assay type: functional; conditions: MDA-MB-231, 48 h, read-out: Activity

SMILES | growth at 0.00517 µM
CN[C@@H](C)C(=O)N[C@H](C(=O)N[C@H]1C[C@@H]2CC[C@H]1N(CCc1ccccc1)C2)C1CCCCC1 | 82.2%

test system: MDA-MB-231; assay: Antiproliferative activity against human MDA-MB-231 cells assessed as cell growth at 0.00172 uM after 48 hrs by alamar blue assay relative to control; assay type: functional; conditions: MDA-MB-231, 48 h, read-out: Activity

SMILES | growth at 0.00172 µM
CN[C@@H](C)C(=O)N[C@H](C(=O)N[C@H]1C[C@@H]2CC[C@H]1N(CCc1ccccc1)C2)C1CCCCC1 | 97%
